Source: PubChem BioAssay AID1259407 (Chemical Carcinogenesis Research Information System (CCRIS), 2018)
The source made the active and inactive calls. No rule for the calls is given here.

System: CCRIS mutagenicity, Ames/micronucleus/aberration tests
Assay: CCRIS mutagenicity studies
[1] = Test System: AMES SALMONELLA TYPHIMURIUM, Strain/Indicator: TA98, Metabolic Activation: NONE, Method: PREINCUBATION
[2] = Test System: AMES SALMONELLA TYPHIMURIUM, Strain/Indicator: TA98, Metabolic Activation: RAT, LIVER, S-9, AROCLOR 1254, Method: PREINCUBATION
[3] = Test System: AMES SALMONELLA TYPHIMURIUM, Strain/Indicator: TA100, Metabolic Activation: NONE, Method: PREINCUBATION
[4] = Test System: AMES SALMONELLA TYPHIMURIUM, Strain/Indicator: TA100, Metabolic Activation: RAT, LIVER, S-9, AROCLOR 1254, Method: PREINCUBATION
[5] = Test System: AMES SALMONELLA TYPHIMURIUM, Strain/Indicator: TA1535, Metabolic Activation: NONE, Method: PREINCUBATION
[6] = Test System: AMES SALMONELLA TYPHIMURIUM, Strain/Indicator: TA1535, Metabolic Activation: RAT, LIVER, S-9, AROCLOR 1254, Method: PREINCUBATION
[7] = Test System: AMES SALMONELLA TYPHIMURIUM, Strain/Indicator: TA1537, Metabolic Activation: NONE, Method: PREINCUBATION
[8] = Test System: AMES SALMONELLA TYPHIMURIUM, Strain/Indicator: TA1537, Metabolic Activation: RAT, LIVER, S-9, AROCLOR 1254, Method: PREINCUBATION

## O=[N+]([O-])c1cc([As](=O)(O)O)ccc1O
End Point: IN VITRO CHROMOSOMAL ABERRATIONS, Test System: CHO CELLS, Metabolic Activation: RAT, LIVER, S-9, AROCLOR 1254
  mutagenic call: inactive; negative; testing limited by solubility of the chemical
End Point: IN VITRO CHROMOSOMAL ABERRATIONS, Test System: CHO CELLS, Metabolic Activation: RAT, LIVER, S-9, PHENOBARBITAL AND BETA-NAPHTHOFLAVONE
  mutagenic call: inactive; negative
Test System: AMES SALMONELLA TYPHIMURIUM, Strain/Indicator: TA98, Metabolic Activation: HAMSTER, LIVER, S-9, AROCLOR 1254 (10%), Method: PREINCUBATION
  mutagenic call: inactive; negative
Test System: AMES SALMONELLA TYPHIMURIUM, Strain/Indicator: TA98, Metabolic Activation: HAMSTER, LIVER, S-9, AROCLOR 1254, Method: PREINCUBATION
  mutagenic call: inactive; negative
[1]
  mutagenic call: inactive; negative
Test System: AMES SALMONELLA TYPHIMURIUM, Strain/Indicator: TA98, Metabolic Activation: RAT, LIVER, S-9, AROCLOR 1254 (10%), Method: PREINCUBATION
  mutagenic call: inactive; negative
[2]
  mutagenic call: inactive; negative
Test System: AMES SALMONELLA TYPHIMURIUM, Strain/Indicator: TA100, Metabolic Activation: HAMSTER, LIVER, S-9, AROCLOR 1254 (10%), Method: PREINCUBATION
  mutagenic call: inactive; negative
Test System: AMES SALMONELLA TYPHIMURIUM, Strain/Indicator: TA100, Metabolic Activation: HAMSTER, LIVER, S-9, AROCLOR 1254, Method: PREINCUBATION
  mutagenic call: inactive; negative
[3]
  mutagenic call: inactive; negative
Test System: AMES SALMONELLA TYPHIMURIUM, Strain/Indicator: TA100, Metabolic Activation: RAT, LIVER, S-9, AROCLOR 1254 (10%), Method: PREINCUBATION
  mutagenic call: inactive; negative
[4]
  mutagenic call: inactive; negative
Test System: AMES SALMONELLA TYPHIMURIUM, Strain/Indicator: TA1535, Metabolic Activation: HAMSTER, LIVER, S-9, AROCLOR 1254 (10%), Method: PREINCUBATION
  mutagenic call: inactive; negative
Test System: AMES SALMONELLA TYPHIMURIUM, Strain/Indicator: TA1535, Metabolic Activation: HAMSTER, LIVER, S-9, AROCLOR 1254, Method: PREINCUBATION
  mutagenic call: inactive; negative
[5]
  mutagenic call: inactive; negative
Test System: AMES SALMONELLA TYPHIMURIUM, Strain/Indicator: TA1535, Metabolic Activation: RAT, LIVER, S-9, AROCLOR 1254 (10%), Method: PREINCUBATION
  mutagenic call: inactive; negative
[6]
  mutagenic call: inactive; negative
Test System: AMES SALMONELLA TYPHIMURIUM, Strain/Indicator: TA1537, Metabolic Activation: HAMSTER, LIVER, S-9, AROCLOR 1254 (10%), Method: PREINCUBATION
  mutagenic call: inactive; negative
Test System: AMES SALMONELLA TYPHIMURIUM, Strain/Indicator: TA1537, Metabolic Activation: HAMSTER, LIVER, S-9, AROCLOR 1254, Method: PREINCUBATION
  mutagenic call: inactive; negative
[7]
  mutagenic call: inactive; negative
Test System: AMES SALMONELLA TYPHIMURIUM, Strain/Indicator: TA1537, Metabolic Activation: RAT, LIVER, S-9, AROCLOR 1254 (10%), Method: PREINCUBATION
  mutagenic call: inactive; negative
[8]
  mutagenic call: inactive; negative
Test System: MOUSE LYMPHOMA, Strain/Indicator: L5178Y (TK+/TK-), Metabolic Activation: NONE, Method: SUSPENSION/PLATE
  mutagenic call: active; positive

## NC(N)=NCCCC(N)C(=O)O (stereo not given)
Test System: AMES SALMONELLA TYPHIMURIUM, Strain/Indicator: TA98, Metabolic Activation: RAT LIVER S-9, CHLOROPHENE, Method: STANDARD PLATE (COMPOUND HEATED AT 250 DEGREES CELSIUS FOR 20 MIN)
  mutagenic call: active; positive
Test System: Ames Salmonella typhimurium, Strain/Indicator: TA98, Metabolic Activation: Rat, Liver, S9, Aroclor 1254, assay without cofactors, Method: Preincubation
  mutagenic call: inactive; negative
Test System: Ames Salmonella typhimurium, Strain/Indicator: TA98, Metabolic Activation: Rat, Liver, S9, Aroclor 1254, heat inactivated, Method: Preincubation
  mutagenic call: inactive; negative
Test System: Ames Salmonella typhimurium, Strain/Indicator: TA98, Metabolic Activation: Rat, Liver, S9, Aroclor 1254, Method: Preincubation
  mutagenic call: active; positive. statistically significant at 2 highest doses.

## C#C[C@]1(O)CC[C@H]2[C@@H]3CCC4=CC(=O)CC[C@@H]4[C@H]3CC[C@@]21C
End Point: IN VITRO CHROMOSOMAL ABERRATIONS, Test System: HUMAN LYMPHOCYTES, Metabolic Activation: NONE
  mutagenic call: inactive; negative
End Point: IN VITRO CHROMOSOMAL ABERRATIONS, Test System: HUMAN LYMPHOCYTES, Metabolic Activation: RAT, LIVER, S-9, PHENOBARBITONE
  mutagenic call: inactive; negative
End Point: IN VIVO MICRONUCLEUS, Test System: HEPATOCYTES, Species: RAT, Strain/Sex: SPRAGUE-DAWLEY/FEMALE, Route: INTRAGASTRIC (GAVAGE)
  mutagenic call: inactive; negative (nonstatistically significant increase)
Test System: AMES SALMONELLA TYPHIMURIUM, Strain/Indicator: TA98, Metabolic Activation: NONE
  mutagenic call: inactive; negative
[1]
  mutagenic call: inactive; negative
Test System: AMES SALMONELLA TYPHIMURIUM, Strain/Indicator: TA98, Metabolic Activation: NONE, Method: STANDARD PLATE
  mutagenic call: inactive; negative
[2]
  mutagenic call: inactive; negative
Test System: AMES SALMONELLA TYPHIMURIUM, Strain/Indicator: TA98, Metabolic Activation: RAT, LIVER, S-9, AROCLOR 1254, Method: STANDARD PLATE
  mutagenic call: inactive; negative
Test System: AMES SALMONELLA TYPHIMURIUM, Strain/Indicator: TA98, Metabolic Activation: S-9
  mutagenic call: inactive; negative
Test System: AMES SALMONELLA TYPHIMURIUM, Strain/Indicator: TA100, Metabolic Activation: NONE
  mutagenic call: inactive; negative
[3]
  mutagenic call: inactive; negative
Test System: AMES SALMONELLA TYPHIMURIUM, Strain/Indicator: TA100, Metabolic Activation: NONE, Method: STANDARD PLATE
  mutagenic call: inactive; negative
[4]
  mutagenic call: inactive; negative
Test System: AMES SALMONELLA TYPHIMURIUM, Strain/Indicator: TA100, Metabolic Activation: RAT, LIVER, S-9, AROCLOR 1254, Method: STANDARD PLATE
  mutagenic call: inactive; negative
Test System: AMES SALMONELLA TYPHIMURIUM, Strain/Indicator: TA100, Metabolic Activation: S-9
  mutagenic call: inactive; negative
Test System: AMES SALMONELLA TYPHIMURIUM, Strain/Indicator: TA1535, Metabolic Activation: NONE
  mutagenic call: inactive; negative
[5]
  mutagenic call: inactive; negative
Test System: AMES SALMONELLA TYPHIMURIUM, Strain/Indicator: TA1535, Metabolic Activation: NONE, Method: STANDARD PLATE
  mutagenic call: inactive; negative
[6]
  mutagenic call: inactive; negative
Test System: AMES SALMONELLA TYPHIMURIUM, Strain/Indicator: TA1535, Metabolic Activation: RAT, LIVER, S-9, AROCLOR 1254, Method: STANDARD PLATE
  mutagenic call: inactive; negative
Test System: AMES SALMONELLA TYPHIMURIUM, Strain/Indicator: TA1535, Metabolic Activation: S-9
  mutagenic call: inactive; negative
Test System: AMES SALMONELLA TYPHIMURIUM, Strain/Indicator: TA1537, Metabolic Activation: NONE
  mutagenic call: inactive; negative
[7]
  mutagenic call: inactive; negative
Test System: AMES SALMONELLA TYPHIMURIUM, Strain/Indicator: TA1537, Metabolic Activation: NONE, Method: STANDARD PLATE
  mutagenic call: inactive; negative
[8]
  mutagenic call: inactive; negative
Test System: AMES SALMONELLA TYPHIMURIUM, Strain/Indicator: TA1537, Metabolic Activation: RAT, LIVER, S-9, AROCLOR 1254, Method: STANDARD PLATE
  mutagenic call: inactive; negative
Test System: AMES SALMONELLA TYPHIMURIUM, Strain/Indicator: TA1537, Metabolic Activation: S-9
  mutagenic call: inactive; negative
Test System: AMES SALMONELLA TYPHIMURIUM, Strain/Indicator: TA1538, Metabolic Activation: NONE, Method: PREINCUBATION
  mutagenic call: inactive; negative
Test System: AMES SALMONELLA TYPHIMURIUM, Strain/Indicator: TA1538, Metabolic Activation: NONE, Method: STANDARD PLATE
  mutagenic call: inactive; negative
Test System: AMES SALMONELLA TYPHIMURIUM, Strain/Indicator: TA1538, Metabolic Activation: RAT, LIVER, S-9, AROCLOR 1254, Method: PREINCUBATION
  mutagenic call: inactive; negative
Test System: AMES SALMONELLA TYPHIMURIUM, Strain/Indicator: TA1538, Metabolic Activation: RAT, LIVER, S-9, AROCLOR 1254, Method: STANDARD PLATE
  mutagenic call: inactive; negative
Test System: E. COLI, Strain/Indicator: WP2 UVRA, Metabolic Activation: NONE
  mutagenic call: inactive; negative
Test System: E. COLI, Strain/Indicator: WP2 UVRA, Metabolic Activation: S-9
  mutagenic call: inactive; negative
